Assay results as given in patent US20070053931A1, “Dietary supplements for treating hypertension” (ULTRA BIOTECH LIMITED, priority 2002, published 2007).

Test system: Wistar rats
Test: Control of essential hypertension in Wistar rats (testosterone propionate-induced blood pressure elevation)
Assay type: in vivo, rat
Procedure: Unless otherwise specified, all compositions of interest were administered to the animals by intragastric feeding.
To test the ability of the activated yeast compositions to reduce blood pressure, thirty-two healthy Wistar rats of average weight of about 200±20 g (8-10 months old, half of them male and the other half female) were randomly divided into four equal groups, Groups A, B, C and D. Blood pressure of each rat was measured with a manometer for three consecutive days. After three days, each rat was subcutaneously injected with 4 mg of testosterone propionate in 0.4 ml of sesame oil per day for fourteen consecutive days.
A composition of interest (2 ml/kg/day) was then administered to each rat for sixteen consecutive days, while their blood pressure level was monitored every four days. Rats in Groups A, B, C and D received distilled water, reserpine, the activated yeast composition and the control yeast composition, respectively.

COC(=O)[C@H]1[C@H]2C[C@@H]3c4[nH]c5cc(OC)ccc5c4CCN3C[C@H]2C[C@@H](OC(=O)c2cc(OC)c(OC)c(OC)c2)[C@@H]1OC [reserpine]
Blood Pressure After Administration of a Composition (Wistar rats made hypertensive with 4 mg/day s.c. testosterone propionate for 14 days, composition 2 ml/kg/day intragastric for sixteen consecutive days): 15.3 ± 0.89 kPa | Change in Blood Pressure (Value in Col. 3 − Value in Col. 2) (after administration of composition vs after testosterone injection, 2 ml/kg/day intragastric, 16 days): 1.4 ± 0.33 kPa
